Source: patent US12599602B2, “Methods for treating cholestasis” (Mirum Pharmaceuticals, Inc., priority 2019, dated 2026)
Several values for one entry are separate records, joined by “and”; a condition that tells them apart may be missing. Identical values can stand only once. Like-named read-outs stand apart in the source and are kept apart here.

How the values were obtained:
[1] = system: Children with Progressive Familial Intrahepatic Cholestasis; assay: INDIGO phase 2 open-label efficacy and safety clinical study of maralixibat in PFIC; format: in vivo, human; conditions: for 7αC4:sBA ratio: high-dose responder
[2] = system: Participants with Primary Sclerosing Cholangitis (PSC); assay: CAMEO 14-week single-arm open-label phase 2a study of maralixibat in PSC; format: in vivo, human
Method: Participants were adults aged 18-80 years with a diagnosis of PSC. PSC diagnosis included a documented history of alkaline phosphatase (ALP) levels greater than 1.5 times above the upper limit of normal, biliary obstruction, and histological findings consistent with PSC diagnosis (if previously biopsied). The study enrolled 27 adults.
Efficacy was assessed by measuring at baseline and throughout the study sBA concentration, serum 7αC4 concentration (a marker of de novo bile acid synthesis), serum aoutotaxin concentration, LDL-C concentration, serum total cholesterol concentration, serum liver enzyme concentrations, and pruritus severity. Pruritus severity was determined by calculating Adult Itch Reported Outcome (ITCHRO) weekly sum scores and average daily scores (mean score over a 7-day period). Participants self-reported the ITCHRO daily on a scale 0-10 (0=no pruritus; 10=most severe pruritus).
Outcomes were assessed in the overall study population and in subgroups of participants (A) with any pruritus at baseline or (B) with an ITCHRO average daily score ≥4 out of 10 at baseline. Efficacy endpoints were based on change from baseline to week 14 or early termination (ET) and were analyzed using paired t-tests or Wilcoxon signed rank tests.

[3] = system: Children with Alagille Syndrome
Method: Children aged 1-18 years with a diagnosis of ALGS and evidence of cholestasis were eligible to enroll in the ICONIC clinical study, see Tables 12-14. During a long-term extension, participants with sBA levels above the upper limit of normal and/or an ITCHRO(OBS) score >1.5 were eligible for the 400 μg/kg BID dose (all participants received the 400 μg/kg BID dose). Inclusion criteria for the ICONIC study included having cholestasis, which was defined as at least one of 1) sBA concentration (total sBA) >3× the upper limit of normal, 2) serum conjugated bilirubin concentration >1 mg/dL, 3) fat-soluble vitamin deficiency not otherwise explained, 4) serum gamma-glutamyl transferase concentration >3× the upper limit of normal, and 3) intractable pruritus explainable only by liver disease. Inclusion criteria also included having significant pruritus, which was defined as an average daily score of >2 on the ITCHRO(OBS) scale for 2 consecutive weeks (0=no pruritus; 4=most severe pruritus). Exclusion criteria included having surgically disrupted enterohepatic circulation, a liver transplant, decompensated cirrhosis, or having any liver disease other than ALGS.
sBA responders were defined as those patients achieving ≥50% reduction from baseline in sBA at week 12 or 18. ITCHRO responders were defined as those patients achieving at least a 1-point reduction from Baseline in weekly morning ITCHRO(OBS) score at week 12 or 18.
In the open label extension, the effect of higher doses was explored by increasing dosage to a maximum of 400 μg/kg BID in eligible participants.
Efficacy assessments were based on changes from baseline in sBA concentration, weekly average ITCHRO(OBS) scores (0, none; 4, most severe), CSS score (0, none; 4 most severe), and Clinician Xanthoma Scale score (0, none; 4, disabling). […] During the long-term extension, efficacy assessments were conducted every 12 weeks. Serum total cholesterol and serum 7αC4 concentration were also monitored during the ICONIC clinical study, among other measures.
sBA were measured using a fully validated liquid chromatography-electrospray ionization-mass electrospray (LC-ESI-MS) method using stable-isotope dilution analysis to measure serum concentrations of principal bile acids (cholic, chenodeoxycholic, ursodeoxycholic, deoxycholic acid, lithocholic, and their corresponding glycine and taurine conjugates). Serum samples were analyzed in the Division of Pathology and Laboratory Medicine, Cincinnati Children's Hospital Medical Center according to SOP #PATH.CMS.1033. Calibration standards of individual bile acids were in the range of 50-25,000 ng/mL and Quality Control samples were prepared at concentrations of 100, 500, 1000, 2500, and 20000 ng/mL. The intra- and inter-assay imprecision of the method for individual bile acids measured was within the accepted GLP quality assurance guidelines of <15% coefficient of variance for these QC samples. The lower limit of quantification of the assay was set at 100 ng/mL and the imprecision at this concentration was <20%. The limit of detection of the assay was 5 ng/mL. Total sBA is represented by the sum of the individual bile acid species measured.

[4] = participants with ITCHRO daily score ≥4 at baseline, one line per Participant A-F
[5] = participants with an ITCHRO daily score ≥4 at baseline

## maralixibat
[1]; all PFIC 1 patients and all patients harboring a truncating ABCB11 mutation
  multi-parameter response: not multi-parameter responders
[1]; all low-dose responders, e.g. within 2-6 months of first administration
  serum ALT, AST, and bilirubin concentrations over time: normalized or only mildly elevated concentrations
[1]; all low-dose responders, within 13 weeks of first administration
  increase in C4 levels relative to baseline: at least 2.5 fold
[1]; high dose responder, following treatment response on sBA
  height Z-score: increase in height Z-score
[1]; prior to administration of 560 μg/kg/day
  7αC4:sBA ratio: 12 times baseline
[1]; upon administration of the higher dose (560 μg/kg/day)
  7αC4:sBA ratio: 1770 times baseline
[1]; low-dose responder losing response in long-term extension, 280 μg/kg BID from between 640 and 730 days
  cholestasis markers after administration of the higher dose: sBA concentration decreased, severity of pruritus decreased, serum 7αC4 concentration increased, and 7αC4:sBA ratio increased
[1]; low-dose responder with sBA increase in long-term extension, 280 μg/kg BID from between 820 and 910 days
  pruritus after administration of the higher dose: severity of pruritus subsequently decreased
[1]; low-dose responders
  7αC4 concentrations at 48 weeks: 14 × baseline
  growth (height Z-score change relative to baseline): improved growth relative to baseline
  mean change from baseline at week 48 in 7αC4:sBA ratio: 1388 times baseline ratio
[1]; mild PFIC 2 patients, 280 μg/kg QD
  multi-parameter responder: 1 of 7
[1]; moderate PFIC 2 patients, 280 μg/kg/day by week 48
  responders: 5 of 12
[1]; moderate PFIC 2 patients, responsive only after 280 μg/kg twice daily
  high-dose responder: 1 of 12
[1]; non-responders
  7αC4 concentrations at 48 weeks: 1.8 × baseline
  growth (height Z-score change relative to baseline): did not
  mean change from baseline at week 48 in 7αC4:sBA ratio: 1.9 times baseline ratio
[1]; non-truncating BSEP mutations
  patients with ≥1.0 pt. reduction in ITCHRO(OBS) score: 10/19
[1]; responders
  duration of maintained response: for over a year and for up to or beyond 5 years
[1]; responders (n = 6) by week 48
  ItchRO score, n: Improved by ≥1.0 points from baseline: 4
  ItchRO score, n: Zero (no pruritus): 2
  sBA levels, n: Normalized (±≤8.5 μmol/L): 4
  sBA levels, n: Reduced by ≥70% or ≥80% from baseline: 2
[1]; three non-truncating PFIC 2 patients without response at 280 μg/kg/day given 560 μg/kg/day
  patients responding at the higher dose: one
[1]; week 48
  ALT, change from baseline to week 48, mean: −12 UI/L
  C4, change from baseline to week 48, mean: +6.0 ng/mL
  ItchRO(Obs) score, change from baseline to week 48, mean: −1.0
  PedsQL total score, change from baseline to week 48, mean: +8.2
  Total bilirubin, change from baseline to week 48, mean: +0.8 mg/dL
  sBA, change from baseline to week 48, mean: -32 µmol/L
[2]; adults with PSC, up to 10 mg/day
  tolerability: well tolerated
[2]; baseline to week 14
  participants with worsening of pruritus by >1 point: No participants
[2]; overall
  7αC4, mean increase from baseline: 11.1 ng/mL
  Mean levels of 7αC4, increase from baseline: 130%
  sBA levels, decrease from baseline: 38%
  sBA levels, mean change from baseline: -14.8 µmol/L
[2]; overall population
  Mean conjugated bilirubin levels, increase: 0.19 mg/dL
  serum LCL-C concentration, change: -16.3 mg/dL
  serum autotaxin concentration, change: -148 ng/mL
  total cholesterol, mean change: -21.2 mg/dL
[2]; overall, baseline to week 14/ET
  ITCHRO weekly sum scores, decrease from baseline: 51%
[2]; participants in the CAMEO clinical study
  Changes in serum total bilirubin, alanine aminotransferase, aspartate aminotransferase, and alkaline phosphatase concentrations: not statistically significant
[2]; participants with ITCHRO daily score ≥0 at baseline
  conjugated bilirubin levels, change: no significant change
[2]; [4]
  ItchRO average daily score (0-10 scale), Change from baseline to week 14/ET: −4.7 and −4.6 and −1.7 and −3.7 (2×) and −9.1
  ItchRO average daily score (0-10 scale), Week 14/ET: 0 (2×) and 1.3 and 5.1 and 3.1 and 2.3
[2]; participants with an ITCHRO daily score >4 at baseline
  autotaxin levels: significant reductions
[2]; participants with an ITCHRO daily score >4 out of 10 at baseline (n=6)
  ITCHRO weekly sum scores, decrease from baseline: 70%
[2]; [5]
  Mean levels of 7αC4, increase from baseline: 107%
  sBA levels, decrease from baseline: 45%
  total cholesterol, mean change: -32.0 mg/dL
[2]; participants with an ITCHRO score ≥4 at baseline
  participants in whom pruritus improved: all 6
[2]; participants with any pruritus at baseline (n=18)
  ITCHRO weekly sum scores, decrease from baseline: 53%
[3]; 400 μg/kg QD then 400 μg/kg BID
  weight Z-scores: dose-dependent increase in weight Z-scores
[3]; ITCHRO(OBS) weekly morning average score, one line per Subject ID (Table 18)
  Change in ItchRO from Baseline to Week 48: 0.49 and −0.45 and 1.29 and −3.86 and 0.00 and −2.57 and −1.86 (2×) and −1.71 (2×) and −1.00 (2×) and −1.29 and −1.67 and −1.14 and −1.03 and −3.29 (2×) and −3.43 and −2.50 and −2.71 (2×) and −3.50 and −2.29 and −0.17 and −1.43 and −0.83 and −0.12
[3]; Normalization (<8.5 μmol/L)
  sBA response, Week 48 (N = 28) n (%): 1 (3.6%)
[3]; Open-label Week 18
  ItchRO (Obs) responders, Decrease from baseline ≥1: 67.7%
  ItchRO (Obs) responders, Decrease from baseline ≥1.25: 58.1%
  ItchRO (Obs) responders, Decrease from baseline ≥1.5: 51.6%
[3]; Open-label Week 48
  ItchRO (Obs) responders, Decrease from baseline ≥1: 72.4%
